Measurements from US20240409585A1, “MACROCYCLIC IMMUNOMODULATORS” (priority 2021, published 2024).
Bridge positions count the residues as written; N and C are the ends. Square brackets hold non-standard residues; d marks the D form. Peptide text beside a SMILES is read from it. * marks the point of attachment. Bip = N[C@@H](Cc1ccc(-c2ccccc2)cc1)C(=O)O; Cha = N[C@@H](CC1CCCCC1)C(=O)O; Carboxymethyl = O=C(O)C*; NMeA = CN[C@@H](C)C(=O)O; Nle = CCCC[C@H](N)C(=O)O; Dap = NC[C@H](N)C(=O)O

Molecular target: T1, PE-labeled human PD-L1-Ig binding to Jurkat cell line over-expressing human PD-1 (Jurkat-PD-1) (Homo sapiens, UniProt Q15116)
T1 construct: expressed in transfected cells; host or cells: Jurkat
Experiment: Jurkat-PD-1 Cell Binding High-Content Screening Assay (CBA): Method 1
Conditions: Jurkat-hPD-1 cells, PE-labeled PD-L1-Ig 20 nM final; read-out: Jurkat HPDL1 PD1 IC50 (uM) (Method 1)

T1 sequence (Q15116 25-288): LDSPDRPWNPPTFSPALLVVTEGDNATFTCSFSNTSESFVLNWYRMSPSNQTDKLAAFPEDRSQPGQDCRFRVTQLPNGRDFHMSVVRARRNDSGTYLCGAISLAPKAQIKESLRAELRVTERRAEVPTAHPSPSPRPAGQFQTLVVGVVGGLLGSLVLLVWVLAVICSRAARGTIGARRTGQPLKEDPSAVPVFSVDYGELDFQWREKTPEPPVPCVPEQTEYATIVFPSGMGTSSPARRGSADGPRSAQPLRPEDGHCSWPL

| IC50 [µM] | Compound |
| --- | --- |
| 0.03 | CC[C@H](C)[C@@H]1NC(=O)[C@H](Cc2ccc(-c3ccccc3)cc2)NC(=O)[C@H](C(C)C)NC(=O)[C@H](Cc2c[nH]c3ccccc23)NC(=O)[C@H](CC(=O)O)NC(=O)[C@H](Cc2ccc(O)cc2)NC(=O)[C@H](Cc2ccc(OCC(=O)O)cc2)NC(=O)CSC[C@@H](C(=O)N[C@@H](C)C(N)=O)NC(=O)[C@H]([C@@H](C)O)NC(=O)[C@H](C(C)C)NC(=O)[C@H](CC2CCCCC2)NC(=O)[C@H](CCCNC(=N)N)NC(=O)[C@@H](CC(C)C)NC(=O)[C@H](C)N(C)C1=O [Compound 1493] ({CH2CO}-Y(Carboxymethyl)YDWV[Bip]I[NMeA][dL]R[Cha]VTCA-NH2; thioether N-14) |
| 0.05 | CC[C@H](C)[C@@H]1NC(=O)[C@H](Cc2ccc(-c3ccccc3)cc2)NC(=O)[C@H](C(C)C)NC(=O)[C@H](Cc2c[nH]c3ccccc23)NC(=O)[C@H](CC(=O)O)NC(=O)[C@H](Cc2ccc(O)cc2)NC(=O)[C@H](Cc2ccccc2)NC(=O)CSC[C@@H](C(=O)N[C@@H](C)C(N)=O)NC(=O)[C@H]([C@@H](C)O)NC(=O)[C@H](C(C)C)NC(=O)[C@H](CC2CCCCC2)NC(=O)[C@H](CCCNC(=N)N)NC(=O)[C@@H](CC(C)C)NC(=O)[C@H](C)N(C)C1=O [Compound 1494] ({CH2CO}-FYDWV[Bip]I[NMeA][dL]R[Cha]VTCA-NH2; thioether N-14) |
| 0.04 | CC[C@H](C)[C@@H]1NC(=O)[C@H](Cc2ccc(-c3ccccc3)cc2)NC(=O)[C@H](C(C)C)NC(=O)[C@H](Cc2c[nH]c3ccccc23)NC(=O)[C@H](CC(=O)O)NC(=O)[C@H](Cc2ccc(O)cc2)NC(=O)[C@H](CC(N)=O)NC(=O)CSC[C@@H](C(=O)N[C@@H](C)C(N)=O)NC(=O)[C@H]([C@@H](C)O)NC(=O)[C@H](C(C)C)NC(=O)[C@H](CC2CCCCC2)NC(=O)[C@H](CCCNC(=N)N)NC(=O)[C@@H](CC(C)C)NC(=O)[C@H](C)N(C)C1=O [Compound 1495] ({CH2CO}-NYDWV[Bip]I[NMeA][dL]R[Cha]VTCA-NH2; thioether N-14) |
| 0.18 | CCCC[C@@H]1NC(=O)[C@H](CCCNC(=N)N)NC(=O)[C@@H](CC(C)C)NC(=O)[C@H](C)N(C)C(=O)[C@H]([C@@H](C)CC)NC(=O)[C@H](Cc2ccc(-c3ccccc3)cc2)NC(=O)[C@H](C(C)C)NC(=O)[C@H](Cc2c[nH]c3ccccc23)NC(=O)[C@H](CC(=O)O)NC(=O)[C@H](Cc2ccc(O)cc2)NC(=O)[C@H](CN)NC(=O)CSC[C@@H](C(=O)N[C@@H](C)C(N)=O)NC(=O)[C@H]([C@@H](C)O)NC(=O)[C@H](C(C)C)NC1=O [Compound 1496] ({CH2CO}-[Dap]YDWV[Bip]I[NMeA][dL]R[Nle]VTCA-NH2; thioether N-14) |
| 0.2 | CCCC[C@@H]1NC(=O)[C@H](CCCNC(=N)N)NC(=O)[C@@H](CC(C)C)NC(=O)[C@H](C)N(C)C(=O)[C@H]([C@@H](C)CC)NC(=O)[C@H](Cc2ccc(-c3ccccc3)cc2)NC(=O)[C@H](C(C)C)NC(=O)[C@H](Cc2c[nH]c3ccccc23)NC(=O)[C@H](CC(=O)O)NC(=O)[C@H](Cc2ccc(O)cc2)NC(=O)[C@H](Cc2ccc(OCC(=O)O)cc2)NC(=O)CSC[C@@H](C(=O)N[C@@H](C)C(N)=O)NC(=O)[C@H]([C@@H](C)O)NC(=O)[C@H](C(C)C)NC1=O [Compound 1497] ({CH2CO}-Y(Carboxymethyl)YDWV[Bip]I[NMeA][dL]R[Nle]VTCA-NH2; thioether N-14) |
| 0.12 | CCCC[C@@H]1NC(=O)[C@H](CCCNC(=N)N)NC(=O)[C@@H](CC(C)C)NC(=O)[C@H](C)N(C)C(=O)[C@H]([C@@H](C)CC)NC(=O)[C@H](Cc2ccc(-c3ccccc3)cc2)NC(=O)[C@H](C(C)C)NC(=O)[C@H](Cc2c[nH]c3ccccc23)NC(=O)[C@H](CC(=O)O)NC(=O)[C@H](Cc2ccc(O)cc2)NC(=O)[C@H](CC(N)=O)NC(=O)CSC[C@@H](C(=O)N[C@@H](C)C(N)=O)NC(=O)[C@H]([C@@H](C)O)NC(=O)[C@H](C(C)C)NC1=O [Compound 1498] ({CH2CO}-NYDWV[Bip]I[NMeA][dL]R[Nle]VTCA-NH2; thioether N-14) |
